Results taken from US11591284B2, “Compounds for the treatment of neuromuscular disorders” (NMD Pharma A/S, priority 2017, dated 2023).
Where two headings read alike, the source gives them in different places.

Experiments:
[1] = system: isolated rat soleus muscles; experiment: Recovery of nerve-stimulated force in isolated rat soleus muscles exposed to sub-maximal tubocurarine; conditions: for 500 μM % change after addition: 500 μM compound
Method: FIGS. 3A-3B. […] The motor nerve was stimulated every 10 min for 2 s with 30 Hz with field stimulation using short duration pulses. […] Traces are shown before addition tubocurarine, after 40 min with tubocurarine, and after 110 min tubocurarine. […] This recovery of force was used in Table 1.
(§1) In all contraction experiments, isometric force production was determined and force produced during contractions was quantified by measuring the integral of the force response (AUC). Stimulation and force recordings have been described elsewhere. […] In these latter experiments, extracellular recordings of action potentials (M-waves) could be measured without temporal overlap with stimulation artefacts.
(§2) To initially confirm that inhibition of CIC-1 ion channels can be used to recover contractile force in muscle with reduced neuromuscular transmission, isolated nerve-muscle preparations were first exposed to either tubocurarine (FIG. 2A) or elevated Mg^2+ (FIG. 2B) and then a specific CIC-1 inhibitor (9-AC) was added.
To identify CIC-1 inhibitors that could be used for treatment of neuromuscular disorders we repeated the experiment shown in FIG. 2A but instead of adding 9-AC we added the compounds of interest in different concentrations within the range from 10 to 500 μM. […] For comparison with the muscle only exposed to tubocurarine (grey trace), the two traces have been overlaid. […] For comparison, muscles only exposed to tubocurarine have been included. The dotted line indicates the recovery of force with C8 when compared to the force production before its addition. This value was used in Table 1 for evaluation of the efficacy of the different compounds in recovering force.

[2] = system: isolated rat soleus muscles; experiment: Recovery of nerve-stimulated force in isolated rat soleus muscles exposed to 3.5 mM Mg2+
Method: as §1
The aim was to find compounds that by inhibition of CIC-1 channels can recover nerve-stimulated force under conditions of fatigue including conditions where fatigue is caused by compromised neuromuscular transmission. Neuromuscular transmission dysfunction can develop because of both pre- and/or post-synaptic complications in connection with a disorder or as part of neuromuscular blockade during/after surgery. In the initial series of drug testing, experiments were performed with isolated muscles in the presence of sub-maximal ACh receptor antagonist tubocurarine. Since the inclusion of tubocurarine caused a partial loss of neuromuscular transmission this experiment mimics the conditions in myasthenia gravis and neuromuscular blockade. To mimic conditions with pre-synaptic complication (Lambert Eaton syndrome, motor neuron disorder, polyneuropathy) the intact nerve-muscle preparations were incubated at elevated extracellular Mg^2+, which is known to suppress release of ACh from nerve terminals of motor neurons.
as §2
The next series of experiments determined whether the compounds that recovered nerve-stimulated force in the presence of tubocurarine could also recover nerve-stimulated force at elevated extracellular Mg^2+.

isolated human muscles = conditions: human muscle; 150 μM (FIG. 8A)
soleus muscles = experiment: Mg2+ concentration required to depress nerve-stimulated force by 50% (Kd,Mg2+) in soleus muscles; design: species or system rat; conditions: combination of C8 and 3,4-diaminopyridine
Method: FIGS. 6A-6E. […] Muscles from 4-week-old rats were stimulated to contract by activating the motor nerve with short duration pulses in field stimulation. Muscles contracted every 10 min for 2 s in response to 30 Hz stimulation. Four different experimental conditions were used. […] C) similar to A) but this muscle had been pre-incubated with 3,4-AP. […] The force integral (AUC) was determined at each extracellular Mg^2+ concentration. AUC was plotted against Mg^2+ concentration and the data was fitted to a sigmoidal function. This provided the extracellular Mg^2+ concentration that was required to reduce the nerve-stimulated force to 50% (Mg50) under the four different conditions (see Table 5).
While the use of tubocurarine mimics conditions with reduced neuromuscular transmission due to post-synaptic dysfunction (myasthenia gravis, neuromuscular blockade), the experiments with elevated extracellular Mg^2+ mimics conditions with pre-synaptic dysfunction akin to a range of neuromuscular disorders including Lambert Eaton syndrome, motor neuron disorders and polyneuropathy. […] Based on this it was determined whether recovery of nerve-stimulated force at elevated extracellular Mg^2+ with CIC-1 inhibiting compounds could be added to force recovery with 3,4-AP. […] To quantify the effect of compounds on Mg^2+ sensitivity the force at the different Mg^2+ concentrations was determined. […]

rats [3] = experiment: Rotarod running performance in passive myasthenia gravis induced with MAB35 monoclonal antibody; type: in vivo, rat; conditions: MAB35 model, compared with sham
Method: FIG. 10. […] Prior to I.P. injection of MAB35 the animals had been familiarized to the rotarod over three training sessions distributed over two days. […] After this treatment performance was monitored every second hour. *Indicates significant different as evaluated using student t-test.
(§3) In both series of experiments, running performance was tested on a rotarod using a protocol where the rod was accelerated gradually over a 5 min period, and the running time and covered distance before falling off the rod were measured. […] Experiments with tubocurarine were carried out over two days, and on each day the effect of tubocurarine on running performance was tested. On the first day only tubocurarine was injected. […] On the second day, the animals were first allowed to run on the rotarod, and all animals performed normally. […] The allocation of the animals into the two groups (C8 or sham) was random and unknown to the experimenter (blinded experimental design).
In experiments with MAB35, animals were first familiarized with the rotarod over two consecutive days and then injected I.P. with MAB35. After injection, rotarod performance was then again monitored regularly over the consecutive two days. […] A considerable number of animals, however, became moribund failing to walk and they had altered ventilation (rapid) and pronounced ptosis. These animals were not included in experiments. […]

[4] = system: isolated rat soleus muscles; experiment: Recovery of nerve-stimulated force in isolated rat soleus muscles with ACh receptors inhibited by 2 μM rocuronium; conditions: 50 μM compound added after 2 μM rocuronium had reduced force to 51±5%; 8 muscles; p<0.01
Method: In a separate series of experiments with 8 isolated rat soleus muscles, ACh receptors were inhibited using 2 μM rocuronium, which is a clinically used neuromuscular blocking agent. Under these conditions the nerve-stimulated force was reduced to 51±5% of force before rocuronium. […] This illustrates the potential of these compounds to be used as reversal agents.

rats [5] = experiment: Rotarod running performance of rats after I.P. tubocurarine; type: in vivo, rat; conditions: 20 mg/kg I.P., 2 hrs before tubocurarine (0.13 mg/kg I.P.); tested 21 min after tubocurarine; sham around 2%
Method: FIGS. 9A-9B. […] FIG. 9A illustrates the design of the experiments. Prior to Day One the animals had been familiarized to the rotarod in three training sessions distributed over two days.
as §3
In the first series of in vivo experiments, myasthenia gravis was simply mimicked by I.P. injection of tubocurarine (0.13 mg/kg) in animals that had been familiarized to running on the rotarod. On the first of two consecutive days, tubocurarine was injected I.P. and the running performance of the animal was tested 21 minutes after this injection. On the second day of experimentation, the animals first performed a test run to ensure that they were no longer affected by the tubocurarine injected the day before. […]

[6] = Pharmacokinetic analysis of a single I.P. dose in rats; type: in vivo, Sprague-Dawley rats; conditions: rat, single I.P. dose 10 mg/kg, plasma
Method: This part of the study was performed by Pipeline Biotech A/S (Spørring, Denmark). […] Plasma concentrations (free and bound) were determined by OnTarget Chemistry (Uppsala, Sweden, Project No.: PB243-001).
Before conducting in vivo experiments with animal models of myasthenia gravis, some pharmacokinetic details were obtained for C8 in response to one-bolus I.P. injection.

rat soleus muscle = type: cell-based; conditions: 10 and 25 μM; 1 μM μ-conotoxin GiiiB
[7] = 150 μM compound, % change in AUC force compared to AUC after 40 min in tubocurarine, before addition
[8] = % change in AUC force compared to AUC after 40 min in tubocurarine, before addition

For `CC(Oc1ccc(Cl)cc1)C(=O)Oc1ccc(Cl)cc1` (stereo not shown) [Compound C11, 4-chlorophenyl 2-(4-chlorophenoxy)propanoate], the “150 μM % change after addition” value [1] was 54%.

In the case of `COCC(C)C(Oc1ccc(Br)cc1)C(=O)O` (stereo not shown) [Compound C21, 2-(4-bromophenoxy)-4-methoxy-3-methylbutanoic acid], the “150 μM % change after addition” value [1, 7] is reported as 7% and the “500 μM % change after addition” value [1, 8] is reported as 36%.

In the case of `O=C(O)c1c2ccccc2cc2ccccc12` [Compound 9-AC, reference compound], the “recovery of force and M-wave signal” value ([2]; 9-AC added at elevated Mg2+ (FIG. 2B)) is reported as “marked recovery of both force and M-wave signal” and the “recovery of force and M-wave signal” value ([1]; 9-AC added after tubocurarine (FIG. 2A)) is reported as “marked recovery of both force and M-wave signal”.

With `Cl.NCC(Oc1ccc(F)cc1)C(=O)O` (stereo not shown) [Compound C9, 3-amino-2-(4-fluorophenoxy)propanoic acid hydrochloride] the “150 μM % change after addition” value [1, 7] was −13% and the “500 μM % change after addition” value [1, 8] was 5%.

With `CC(C(=O)O)S(=O)(=O)c1ccc(F)cc1` (stereo not shown) [Compound C6, 2-(4-fluorobenzenesulfonyl)propanoic acid] the “150 μM % change after addition” value [1, 7] was −8% and the “500 μM % change after addition” value [1, 8] was 9%.

In the case of `C[C@H](OCc1ccccc1)C(=O)O` [Compound C5, (2S)-2-(benzyloxy)propanoic acid], the “150 μM % change after addition” value [1, 7] is reported as 1% and the “500 μM % change after addition” value [1, 8] is reported as 42%.

With `C[C@H](Oc1ccc(Br)cc1)C(=O)O` [Compound C8, (2S)-2-(4-bromophenoxy)propanoic acid] the “contractile force at elevated K+ and TTX” value (isolated human muscles) was “markedly recovery”, the “effect of combination on recovery of neuromuscular transmission” value (soleus muscles) was “unexpected synergistic effect” and the “rotarod running performance after injection” value (rats [3]; 20 mg/kg I.P.) was “decline was reduced”. For the same compound, the “rotarod running performance after injection” value (rats [3]; 30 mg/kg I.P.) was “clear recovery of performance”, the “nerve-stimulated contractile force, % of force before rocuronium” value [4] was 81±4% and the “increase in running distance on Day Two compared to Day One” value (rats [5]) was “around 150%”. The CI_obs [6] was 48.69 mL/h, the VD_obs [6] was 259.62 mL and the “EPP amplitude compared to control conditions” value (rat soleus muscle) was “significantly larger EPPs”. The “50 μM % change after addition” value ([2]; 50 μM compound, 3.5 mM Mg2+, % change in AUC force vs column 3 (after 70 min at elevated Mg2+)) was 13 ± 4%, the “100 μM % change after addition” value ([2]; 100 μM compound, 3.5 mM Mg2+, % change in AUC force vs column 3 (after 70 min at elevated Mg2+)) was 26 ± 5% and the “150 μM % change after addition” value [1, 7] was 23%.

For `CCC(Oc1ccc(Cl)cc1)C(=O)O` (stereo not shown) [Compound C7, 2-(4-chlorophenoxy)butanoic acid], the “150 μM % change after addition” value [1, 7] was 0% and the “500 μM % change after addition” value [1, 8] was 40%.
